Data taken from patent publication US20260193227A1, “THERAPEUTIC COMPOUNDS AND METHODS” (UNIVERSITY OF IOWA RESEARCH FOUNDATION, priority 2022, published 2026).

Molecular target: T1, RPA-ssDNA-RAD52 complex (Homo sapiens, UniProt P43351)
T1 construct: 6xHis; made in house
T1 sequence (P43351 1-418): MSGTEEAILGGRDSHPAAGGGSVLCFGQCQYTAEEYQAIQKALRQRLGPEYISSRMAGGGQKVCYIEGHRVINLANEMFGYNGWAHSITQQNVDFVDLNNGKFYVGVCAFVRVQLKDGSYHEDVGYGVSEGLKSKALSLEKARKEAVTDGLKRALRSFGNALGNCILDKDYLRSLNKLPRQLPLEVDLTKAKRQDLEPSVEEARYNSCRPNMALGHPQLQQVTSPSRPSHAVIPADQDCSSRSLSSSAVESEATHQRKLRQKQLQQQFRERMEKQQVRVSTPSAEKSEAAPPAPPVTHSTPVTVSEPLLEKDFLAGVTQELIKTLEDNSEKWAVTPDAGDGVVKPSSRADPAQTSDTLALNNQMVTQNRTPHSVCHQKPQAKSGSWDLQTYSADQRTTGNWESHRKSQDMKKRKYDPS
Experiment: FRET-based inhibition of the RPA-ssDNA-RAD52 complex
Format: binding
Conditions: for effect on the RPA-ssDNA-RAD52 complex: FRET titration
Method: Proteins: The 6×His-tagged human RAD52 proteins (wild type and mutants) and untagged human RPA were expressed and purified as previously described in (Hengel S R, eLife. 2016; 5; Grimme J M, et al., Nucleic Acids Res. 2010; 38(9):2917-30; and Henricksen L A, et al., The Journal of biological chemistry. 1994; 269(15):11121-32). RPA and RAD52 protein concentrations were determined by measuring absorbance at 280 nm using extinction coefficients of 88,830 M^−1 cm^−1 and 40,470 M^−1 cm^−1, respectively.
FRET-based DNA binding and inhibition assays: FRET-based that monitor the RAD52-ssDNA, RPA-ssDNA and RAD52-RPA-ssDNA binding were carried out as previously described (Hengel S R, eLife. 2016; 5; Grimme J M, et al., Nucleic Acids Res. 2010; 38(9):2917-30; and Grimme J M, Spies M. FRET-based assays to monitor DNA binding and annealing by Rad52 recombination mediator protein. Methods in molecular biology (Clifton, NJ). 2011; 745:463-83) using Cary Eclipse Spectrofluorimeter (Agilent) at 25° C., in 5 mm quartz cuvettes, and in buffer containing 30 mM Tris-Acetate (pH 7.5) and 1 mM DTT. Cy3 dye was excited at 530 nm and its emission was monitored at 565 nm. Emission of Cy5 acceptor fluorophore excited through the energy transfer from Cy3 donor is monitored at 660 nm simultaneously with emission of Cy3 dye. Both the excitation and the emission slits were set to 10 nm. All experiments were carried out using 1 nM (molecules) Cy3-dT30-Cy5 ssDNA. The optimal concentrations of the RAD52 (6 nM) and RPA (1 nM) proteins were selected by titrating the respective protein into 1 nM Cy3-dT30-Cy5 solution, and chosen based on the largest separation of the FRET values corresponding to the protein bound and free DNA.
The inhibition of the RAD52-ssDNA, RPA-ssDNA and RAD52-RPA-ssDNA complexes was evaluated by titrating each compound to the respective complex, measuring Cy3 and Cy5 fluorescence, and calculating FRET as previously described (Hengel, S. R., et al., eLife, 5).
Spectral properties of many compounds overlapped with the Cy3 and Cy5 fluorescence. To correct the calculated FRET values for the compound signal, the fluorogenic compounds were titrated into buffer and into solution of 1 nM Cy3-dT30-Cy5. For all tested compounds, the change in the signal in the Cy3 and Cy5 channels with and without Cy3/Cy5-labeled DNA present was the same. […] To account for the dye fluorescence, for each compound concentration, the apparent change in FRET of the ssDNA in the presence the compound was subtracted from the respective FRET signal of the RAD52-ssDNA, RPA-ssDNA or RAD52-ssDNA-RPA complex at the same inhibitor concentration. The IC50 values were calculated by fitting the corrected FRET data to the four-parameter dose response model using GraphPad Prism. All data are shown as average for at least three independent experiments ±standard deviation. The IC50 values are presented with their respective fitting error.

| SMILES | effect on the RPA-ssDNA-RAD52 complex | fold lower IC50 for the RPA-ssDNA-RAD52 complex than for the RAD52-ssDNA complex (wild type RAD52) [fold] |
| --- | --- | --- |
| O=C(Cn1cccc([N+](=O)[O-])c1=O)c1c[nH]c2ccccc12 [Example 1] | yields FRET values corresponding to the free ssDNA | – |
| COc1ccccc1NS(=O)(=O)c1cc(C(=O)O)ccc1C [Example 8] | decreases the FRET values of the RPA-ssDNA-RAD52 complex | 6 |
